Source: ChEMBL document CHEMBL1152416, “N-terminal-prolonged vinyl ester-based peptides as selective proteasome beta1 subunit inhibitors” (Bioorg Med Chem, 2009)
Where a SMILES comes first, the peptide text is derived from it. The star is where a group is joined. Cbz = O=C(OCc1ccccc1)*; X1 = C=CO*

Legend:
[1] = Inhibition of post acidic activity of proteasome from human PBMC after 30 mins by cell based assay; settings: 0.5 h
[2] = organism: Homo sapiens; assay: Stability in human plasma assessed as half life
[3] = Inhibition of trypsin-like activity of proteasome from human LCL after 30 mins by fluorimetry; type: subcellular
[4] = Inhibition of trypsin-like activity of proteasome in human PBMC after 30 mins by cell based assay; settings: 0.5 h
[5] = Inhibition of post acidic activity of proteasome from human LCL after 30 mins by fluorimetry; type: subcellular
[6] = Inhibition of post acidic activity of proteasome from human PBMC after 30 mins by fluorimetry; type: subcellular
[7] = Inhibition of trypsin-like activity of proteasome from human PBMC after 30 mins by fluorimetry; type: subcellular
[8] = Inhibition of […] activity of proteasome from human PBMC after 30 mins by cell based assay; settings: 0.5 h
[9] = Inhibition of […] activity of proteasome from human PBMC after 30 mins by fluorimetry; type: subcellular
[10] = Inhibition of […] activity of proteasome from human LCL after 30 mins by fluorimetry; type: subcellular
[11] = Antiproliferative activity against human LCL cells assessed as cell viability at 10 uM after 3 days by trypan blue assay; type: cell-based; settings: 72 h
[12] = Antiproliferative activity against human LCL cells assessed as cell viability at <10 uM after 3 days by trypan blue assay; type: cell-based; settings: 72 h
[13] = test system: JIYOYE; assay: Antiproliferative activity against human Jijoye cells assessed as cell viability at 10 uM after 3 days by trypan blue assay; type: functional, cell-based
[14] = test system: JIYOYE; assay: Antiproliferative activity against human Jijoye cells assessed as cell viability at <10 uM after 3 days by trypan blue assay; type: functional, cell-based

Row | Compound | IC50 [1] [µM] | half-life [2] [h] | IC50 [3] [µM] | IC50 [4] [µM] | IC50 [5] [µM] | IC50 [6] [µM] | IC50 [7] [µM] | IC50 [8] [µM] | IC50 [9] [µM] | IC50 [10] [µM] | Activity [11] | Activity [12] | Activity [13] | Activity [14]
1 | C=COC(=O)[C@H](CC(C)C)NC(=O)[C@H](CC(C)C)NC(=O)[C@H](CC(C)C)NC(=O)CNC(=O)OCc1ccccc1 (Cbz-GLLL-X1) | – | – | > 10 | – | > 10 | 0.545 | > 10 | – | > 10 | > 10 | – | – | – | –
2 | C=COC(=O)[C@H](CC(C)C)NC(=O)[C@H](CC(C)C)NC(=O)[C@H](CC(C)C)NC(=O)CCCCNC(=O)OCc1ccccc1 | 0.128 | > 6 | > 10 | 9.54 | 0.87 | 0.078 | 6.05 | > 10 | > 10 | > 10 | – | – | – | –
3 | CC(C)C[C@@H](C=O)NC(=O)[C@H](CC(C)C)NC(=O)[C@H](CC(C)C)NC(=O)OCc1ccccc1 [MG-132] (Cbz-Leu-Leu-Leu-aldehyde) | – | – | 1.08 | – | > 10 | > 10 | 0.911 | – | 0.023 | 0.002 | – | – | – | –
4 | C=COC(=O)[C@H](CC(C)C)NC(=O)[C@H](CC(C)C)NC(=O)[C@H](CC(C)C)NC(=O)CCCCCNC(=O)OCc1ccccc1 | 0.086 | > 6 | > 10 | 8.86 | 1.08 | 0.053 | 5.98 | > 10 | > 10 | > 10 | Toxic | Non-toxic | Toxic | Non-toxic
5 | C=COC(=O)[C@H](CC(C)C)NC(=O)[C@H](CO)NC(=O)[C@@H](NC(=O)CCCCCNC(=O)OCc1ccccc1)C(C)C | 0.41 | > 6 | > 10 | > 10 | 1.39 | 0.198 | > 10 | > 10 | > 10 | > 10 | – | – | – | –
6 | C=COC(=O)[C@H](CC(C)C)NC(=O)[C@H](CO)NC(=O)[C@@H](NC(=O)CCCCCCCNC(=O)OCc1ccccc1)C(C)C | 0.219 | > 6 | > 10 | > 10 | 5.64 | 0.175 | > 10 | > 10 | > 10 | > 10 | Toxic | Non-toxic | Toxic | Non-toxic
7 | C=COC(=O)[C@H](CC(C)C)NC(=O)[C@H](CO)NC(=O)[C@@H](NC(=O)CNC(=O)OCc1ccccc1)C(C)C (Cbz-GVSL-X1) | – | – | > 10 | – | > 10 | 2.89 | > 10 | – | > 10 | > 10 | – | – | – | –
8 | CC[C@H](C)[C@H](NC(=O)[C@H]([C@@H](C)CC)N(C)C(C)=O)C(=O)N[C@H](C(=O)N[C@@H](CC(C)C)C(=O)[C@@]1(C)CO1)[C@@H](C)O [EPOXOMYCIN] | – | – | – | – | – | > 10 | 0.758 | – | 0.009 | 0.005 | – | – | – | –
9 | C=COC(=O)[C@H](CC(C)C)NC(=O)[C@H](CO)NC(=O)[C@@H](NC(=O)CCCNC(=O)OCc1ccccc1)C(C)C | – | – | > 10 | – | 6.29 | 0.745 | > 10 | – | > 10 | > 10 | – | – | – | –
10 | C=COC(=O)[C@H](CC(C)C)NC(=O)[C@H](CC(C)C)NC(=O)[C@H](CC(C)C)NC(=O)CCCCCCNC(=O)OCc1ccccc1 | – | – | > 10 | – | 1.67 | 0.165 | > 10 | – | > 10 | > 10 | – | – | – | –

Now from value to compound, other results behind:

Row | IC50 [1] [µM] | half-life [2] [h] | IC50 [3] [µM] | IC50 [4] [µM] | IC50 [5] [µM] | IC50 [6] [µM] | IC50 [7] [µM] | IC50 [8] [µM] | IC50 [9] [µM] | IC50 [10] [µM] | Compound | Activity [11] | Activity [12] | Activity [13] | Activity [14]
11 | 0.33 | > 6 | > 10 | > 10 | 2.07 | 0.208 | 7.23 | > 10 | > 10 | > 10 | C=COC(=O)[C@H](CC(C)C)NC(=O)[C@H](CC(C)C)NC(=O)[C@H](CC(C)C)NC(=O)CCCNC(=O)OCc1ccccc1 | – | – | – | –
12 | 0.32 | > 6 | > 10 | > 10 | 2.34 | 0.213 | > 10 | > 10 | > 10 | > 10 | C=COC(=O)[C@H](CC(C)C)NC(=O)[C@H](CC(C)C)NC(=O)[C@H](CC(C)C)NC(=O)CCNC(=O)OCc1ccccc1 | – | – | – | –
13 | 0.45 | > 6 | > 10 | > 10 | 1.54 | 0.231 | > 10 | > 10 | > 10 | > 10 | C=COC(=O)[C@H](CC(C)C)NC(=O)[C@H](CO)NC(=O)[C@@H](NC(=O)CCCCNC(=O)OCc1ccccc1)C(C)C | – | – | – | –
14 | 0.237 | > 6 | > 10 | > 10 | 2.71 | 0.186 | > 10 | > 10 | > 10 | > 10 | C=COC(=O)[C@H](CC(C)C)NC(=O)[C@H](CO)NC(=O)[C@@H](NC(=O)CCCCCCNC(=O)OCc1ccccc1)C(C)C | – | – | – | –
15 | – | – | > 10 | – | > 10 | 0.831 | > 10 | – | > 10 | > 10 | C=COC(=O)[C@H](CC(C)C)NC(=O)[C@H](CO)NC(=O)[C@@H](NC(=O)CCNC(=O)OCc1ccccc1)C(C)C | – | – | – | –
16 | – | – | > 10 | – | 2.43 | 0.487 | > 10 | – | > 10 | > 10 | C=COC(=O)[C@H](CC(C)C)NC(=O)[C@H](CC(C)C)NC(=O)[C@H](CC(C)C)NC(=O)CCCCCCCNC(=O)OCc1ccccc1 | – | – | – | –
